Where two headings read alike, the source gives them in different places.
Molecular target: T1, human Gcg receptor (hGcgR) (Homo sapiens, UniProt P47871)
T1 construct: expressed in transfected cells; crude membranes
Test: [125I]-Glucagon binding, SPA with membranes of HEK293 cells expressing hGcgR

[1] = human GcgR, geometric mean (SEM, n), read-out: Binding Affinity Ki, nM (SEM, n) hGCGR

T1 sequence (P47871 26-477): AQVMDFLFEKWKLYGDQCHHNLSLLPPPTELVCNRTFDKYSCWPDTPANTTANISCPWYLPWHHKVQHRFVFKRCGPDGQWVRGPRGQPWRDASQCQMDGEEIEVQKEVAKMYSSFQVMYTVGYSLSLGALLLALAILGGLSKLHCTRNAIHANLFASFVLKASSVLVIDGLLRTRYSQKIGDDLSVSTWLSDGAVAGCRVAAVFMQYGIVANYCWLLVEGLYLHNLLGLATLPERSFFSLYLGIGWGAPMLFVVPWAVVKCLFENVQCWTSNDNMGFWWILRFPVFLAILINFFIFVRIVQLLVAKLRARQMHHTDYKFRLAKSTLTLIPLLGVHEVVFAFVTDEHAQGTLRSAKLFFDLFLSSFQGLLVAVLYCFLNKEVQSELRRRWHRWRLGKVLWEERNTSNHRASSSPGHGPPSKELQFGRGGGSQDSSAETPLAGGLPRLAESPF

Structure (SMILES)	Ki [1]	Ki
CC[C@H](C)[C@H](NC(=O)[C@H](CC(C)C)NC(=O)[C@](C)(Cc1ccc(O)cc1)NC(=O)[C@@H](CCC(=O)O)NC(=O)[C@@H](NC(=O)[C@H](Cc1ccccc1)NC(=O)[C@H](CCC(=O)O)NC(=O)C(C)(C)NC(=O)[C@H](CCC(N)=O)NC(=O)[C@H](C)NC(=O)[C@H](CCCCNC(=O)COCCOCCNC(=O)COCCOCCNC(=O)CC[C@H](NC(=O)CCCCCCCCCCCCC(=O)O)C(=O)O)NC(=O)[C@H](CCCN)NC(=O)[C@H](CC(=O)O)NC(=O)[C@H](CC(C)C)NC(=O)[C@](C)(CC(C)C)NC(=O)[C@@H](NC(=O)C(C)(C)NC(=O)[C@@H](NC(=O)[C@H](CC(=O)O)NC(=O)[C@H](CO)NC(=O)[C@@H](NC(=O)[C@](C)(Cc1ccccc1F)NC(=O)[C@@H](NC(=O)CNC(=O)[C@H](CCC(=O)O)NC(=O)C(C)(C)NC(=O)[C@@H](N)Cc1ccc(O)cc1)[C@@H](C)O)[C@@H](C)O)C(C)C)[C@@H](C)CC)[C@@H](C)CC)C(=O)N[C@@H](CCC(=O)O)C(=O)NCC(=O)NCC(=O)N[C@@H](CCCCNC(=O)COCCOCCNC(=O)COCCOCCNC(=O)CC[C@H](NC(=O)CCCCCCCCCCCCC(=O)O)C(=O)O)C(=O)N[C@@H](CO)C(=O)N[C@@H](CO)C(=O)NCC(=O)N[C@@H](C)C(=O)N1CCC[C@H]1C(=O)N1CCC[C@H]1C(=O)N1CCC[C@H]1C(=O)N[C@@H](CO)C(N)=O [Example 91]	> 955 nM	–
CC[C@H](C)[C@H](NC(=O)[C@H](CC(C)C)NC(=O)[C@](C)(Cc1ccc(O)cc1)NC(=O)[C@@H](CCC(=O)O)NC(=O)[C@@H](NC(=O)[C@H](Cc1ccccc1)NC(=O)[C@H](CCC(=O)O)NC(=O)C(C)(C)NC(=O)[C@H](CCC(N)=O)NC(=O)[C@H](C)NC(=O)[C@H](CCCCNC(=O)COCCOCCNC(=O)COCCOCCNC(=O)CC[C@H](NC(=O)CCCCCCCCCCCCC(=O)O)C(=O)O)NC(=O)[C@H](CCCN)NC(=O)[C@H](CC(=O)O)NC(=O)[C@H](CC(C)C)NC(=O)[C@](C)(CC(C)C)NC(=O)[C@@H](NC(=O)[C@](C)(CO)NC(=O)[C@@H](NC(=O)[C@H](CC(=O)O)NC(=O)[C@H](CO)NC(=O)[C@@H](NC(=O)[C@](C)(Cc1ccccc1F)NC(=O)[C@@H](NC(=O)CNC(=O)[C@H](CCC(=O)O)NC(=O)C(C)(C)NC(=O)[C@@H](N)Cc1ccc(O)cc1)[C@@H](C)O)[C@@H](C)O)C(C)C)[C@@H](C)CC)[C@@H](C)CC)C(=O)N[C@@H](CCC(=O)O)C(=O)NCC(=O)NCC(=O)N[C@@H](CCCCNC(=O)COCCOCCNC(=O)COCCOCCNC(=O)CC[C@H](NC(=O)CCCCCCCCCCCCC(=O)O)C(=O)O)C(=O)N[C@@H](CO)C(=O)N[C@@H](CO)C(=O)NCC(=O)N[C@@H](C)C(=O)N1CCC[C@H]1C(=O)N1CCC[C@H]1C(=O)N1CCC[C@H]1C(=O)N[C@@H](CO)C(N)=O [Example 212]	> 955 nM	–
CC[C@H](C)[C@H](NC(=O)[C@H](CC(C)C)NC(=O)[C@](C)(Cc1ccc(O)cc1)NC(=O)[C@H](CCCCNC(=O)CC[C@H](NC(=O)COCCOCCNC(=O)COCCOCCNC(=O)CC[C@H](NC(=O)CCCCCCCCCOc1ccc(C(=O)O)cc1)C(=O)O)C(=O)O)NC(=O)[C@@H](NC(=O)[C@H](Cc1ccccc1)NC(=O)[C@H](CCCN)NC(=O)C(C)(C)NC(=O)[C@H](CCC(N)=O)NC(=O)[C@H](C)NC(=O)[C@H](CCC(N)=O)NC(=O)[C@H](CCCN)NC(=O)[C@H](CC(=O)O)NC(=O)[C@H](CC(C)C)NC(=O)[C@](C)(CC(C)C)NC(=O)[C@@H](NC(=O)C(C)(C)NC(=O)[C@H](Cc1ccncc1)NC(=O)[C@H](CC(=O)O)NC(=O)[C@H](CO)NC(=O)[C@@H](NC(=O)[C@](C)(Cc1ccccc1F)NC(=O)[C@@H](NC(=O)CNC(=O)[C@H](CCC(=O)O)NC(=O)C(C)(C)NC(=O)[C@@H](N)Cc1ccc(O)cc1)[C@@H](C)O)[C@@H](C)O)[C@@H](C)CC)[C@@H](C)CC)C(=O)N[C@@H](CCCCNC(=O)CC[C@H](NC(=O)COCCOCCNC(=O)COCCOCCNC(=O)CC[C@H](NC(=O)CCCCCCCCCOc1ccc(C(=O)O)cc1)C(=O)O)C(=O)O)C(=O)NCC(=O)NCC(=O)N1CCC[C@H]1C(=O)N[C@@H](CO)C(=O)N[C@@H](CO)C(=O)NCC(=O)N[C@@H](C)C(=O)N1CCC[C@H]1C(=O)N1CCC[C@H]1C(=O)N1CCC[C@H]1C(=O)N[C@@H](CO)C(N)=O [Example 483]	–	151 nM
